pIC50: −log10 of the molar value. Bounds are passed on as bounds.

This passage reports IC50 results from patent publication US10160748B2 (AbbVie Inc., priority 2015, dated 2018).

The target in the experiment is TNFα trimer (Homo sapiens, UniProt P01375). Briefly: TNFα FP Competitive Binding Assay. As to conditions: FP binding assay; 20 nM TNFα trimer, 1 nM OregonGreen488 probe; read-out: TNF IC50. In short, it runs like this: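 Fluorescence polarization competition: 20 nM TNFα trimer with 1 nM fluorescein-labelled probe in HEPES/NaCl/EDTA/Triton X-100 buffer, compound in 12-point 1:3 dilutions (final top 338 μM or 100 μM). Incubated 18-24 h, background-subtracted mP read, variable-slope dose-response fitting.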
Sequence of TNFα trimer (P01375 77-233 limits assumed): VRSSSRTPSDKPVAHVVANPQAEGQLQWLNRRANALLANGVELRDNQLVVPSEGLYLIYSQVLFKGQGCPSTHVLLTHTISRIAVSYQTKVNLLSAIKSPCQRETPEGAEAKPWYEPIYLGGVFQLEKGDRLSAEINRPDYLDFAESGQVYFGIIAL

The pIC50 is the IC50 on a negative log10 scale, so that one unit is a factor of ten. Take `Cc1ccc(OC(F)F)c(Cn2c3cc(-c4cnc(N5CCN(C(=O)CO)C[C@@H]5C)nc4)ccc3c(=O)n2C)c1` [Example 22.15]: the pIC50 was greater than 6.00.
The result for `Cc1ccc(Cl)c(Cn2c3nc(-c4cnc(N5CCN(C(=O)CO)C[C@H]5C)nc4)ccc3c(=O)n2C)c1` [Example 81, (R)-1-(2-Chloro-5-methylbenzyl)-6-(2-(4-(2-hydroxyacetyl)-2-methylpiperazin-1-yl)pyrimidin-5-yl)-2-methyl-1H-pyrazolo[3,4-b]pyridin-3(2H)-one] reads greater than 6.00; that for `Cc1ccc(OC(F)F)c(Cn2c3cc(-c4cnc(N5C[C@@H]6CNC(=O)[C@@H]6C5)nc4)ccc3c(=O)n2C)c1` (racemic) [Example 20.3], 5.00 to 6.00.
Turning to `O=c1[nH]n(Cc2ccccc2OC(F)F)c2cc(-c3cnc(N4CCOCC4)nc3)ccc12` [Example 6.1, 1-(2-(difluoromethoxy)benzyl)-6-(2-morpholinopyrimidin-5-yl)-1H-indazol-3(2H)-one], the negative logarithm of the IC50 (pIC50) is less than 5.00.
`COc1c(-c2cnc(N3CCN(C(=O)CO)[C@H](C)C3)nc2)ccc2c(=O)n(C)n(Cc3ccccc3Cl)c12` [Example 24.9]: the pIC50 was greater than 6.00.
Consider `COC(=O)NCc1ccc(OC(F)F)c(Cn2c3cc(-c4cnc(N5CCN(C(C)=O)[C@H](C)C5)nc4)ccc3c(=O)n2C)c1` [Example 27.2], for which the pIC50 was greater than 6.00.
The result for `CC(=O)N1CCN(c2ncc(-c3ccc4c(=O)n(C)n(Cc5c(CO)cccc5OC(F)F)c4c3)cn2)[C@H](C)C1` [Example 65, (R)-6-(2-(4-acetyl-2-methylpiperazin-1-yl)pyrimidin-5-yl)-1-(2-(difluoromethoxy)-6-(hydroxymethyl)benzyl)-2-methyl-1H-indazol-3(2H)-one] reads greater than 6.00; that for `CC(=O)N1CCN(c2ncc(-c3ccc4c(=O)n(Cc5cccc(C#N)c5)n(Cc5ccccc5Cl)c4c3)cn2)C[C@H]1C` [Example #134*, (R)-3-((6-(2-(4-Acetyl-3-methylpiperazin-1-yl)pyrimidin-5-yl)-1-(2-chlorobenzyl)-3-oxo-1H-indazol-2(3H)-yl)methyl)benzonitrile], 5.00 to 6.00.
The result for `Cn1c(=O)c2ccc(-c3cnc(NC4CCCOC4)nc3)cc2n1Cc1ccccc1OC(F)F` (stereo not drawn) [Example 2.21] reads 5.00 to 6.00.
The result for `Cn1c(=O)c2ccc(-c3cnc(N4CCC(c5nsc(=O)[nH]5)CC4)nc3)cc2n1Cc1ccccc1OC(F)F` [Example 2.28] reads 5.00 to 6.00; that for `CN1CCC(Nc2ncc(-c3ccc4c(=O)n(C)n(Cc5cc(CO)ccc5OC(F)F)c4c3)cn2)CC1=O` (stereo not drawn) [Example 16.9], greater than 6.00.
For the compound `CC(=O)N1CCN(c2ncc(-c3ccc4c(=O)n(C)n(Cc5cn(CCO)cc5C(F)(F)F)c4c3)cn2)C[C@H]1C` [Example 64, (R)-6-(2-(4-Acetyl-3-methylpiperazin-1-yl)pyrimidin-5-yl)-1-((1-(2-hydroxyethyl)-4-(trifluoromethyl)-1H-pyrrol-3-yl)methyl)-2-methyl-1H-indazol-3(2H)-one], the negative-log IC50 (pIC50) was greater than 6.00.
The result for `Cc1cccc(C(C)n2c3cc(-c4cnc(N5CCN(C(=O)CO)[C@H](C)C5)nc4)ccc3c(=O)n2C)n1` (stereo partly drawn) [Example 24.2] reads 5.00 to 6.00; that for `C[C@@H]1CN(c2ncc(-c3ccc4c(=O)n(C)n(Cc5cc(CC#N)ccc5OC(F)F)c4c3)cn2)CCN1C(=O)CO` [Example 24.1], greater than 6.00; that for `Cc1ccc(CO)cc1Cn1c2cc(-c3cnc(N4CCOCC4)nc3)ccc2c(=O)n1C` [Example 56, 1-(5-(Hydroxymethyl)-2-methylbenzyl)-2-methyl-6-(2-morpholinopyrimidin-5-yl)-1H-indazol-3(2H)-one], 5.00 to 6.00.
The result for `C[C@@H]1CN(c2ncc(-c3c(F)cc4c(=O)n(C)n(Cc5ccccc5OC(F)F)c4c3F)cn2)CCN1C(=O)CO` [Example 46] reads greater than 6.00; that for `Cn1c(=O)c2ccc(-c3cnc(N4CCN5C(=O)NC[C@@H]5C4)nc3)cc2n1Cc1nc(CO)ccc1C(F)(F)F` [Example 16.10], greater than 6.00; that for `Cc1cccc(Cn2c3cc(-c4cnc(N5CCOCC5)nc4)ccc3c(=O)n2C)c1` [Example 1.9], 5.00 to 6.00.
Take `Cn1c(=O)c2ccc(-c3cnc(N4CCOCC4)nc3)cc2n1CCc1ccccc1` [Example 1.4]: the negative logarithm of the IC50 (pIC50) is less than 5.00.
The result for `Cn1c(=O)c2ccc(-c3cnc(N4CCOCC4)nc3)cc2n1Cc1nc(Cl)ccc1Cl` [Example 1.16] reads 5.00 to 6.00; that for `Cn1c(=O)c2ccc(-c3ccc(N4CCOCC4)nc3)cc2n1Cc1ccccc1OC(F)F` [Example 5.2], 5.00 to 6.00; that for `Cn1c(=O)c2ccc(-c3cnc(N4CCOCC4)nc3)cc2n1Cc1ncccc1Cl` [Example 1.14], 5.00 to 6.00.
The result for `Cn1c(=O)c2ccc(-c3cnc(N[C@@H]4CCNC(=O)C4)nc3)cc2n1Cc1cc(CO)ccc1OC(F)F` (single isomer, unassigned) [Example 26] reads greater than 6.00; that for `Cn1c(=O)c2ccc(-c3cnc(N4CCC(C(=O)O)CC4)cn3)cc2n1Cc1ccccc1OC(F)F` [Example 10.3], less than 5.00; that for `Cc1ccc(OC(F)F)c(Cn2c3cc(-c4cnc(N5CCN(C(=O)CO)CC5)nc4)ccc3c(=O)n2C)c1` [Example 22.1], greater than 6.00.
The result for `Cc1ccc(OC(F)F)c(Cn2c3cc(-c4cnc(C(C)(C)CO)nc4)ccc3c(=O)n2C)c1` [Example 22.9] reads 5.00 to 6.00; that for `Cn1c(=O)c2ccc(-c3cnc(N4CCOCC4)nc3)cc2n1Cc1ccc(F)cc1` [Example 1.11], less than 5.00; that for `Cc1ccc(OC(F)F)c(Cn2c3cc(-c4cnc(C5(C)CCNC5)nc4)ccc3c(=O)n2C)c1` (stereo not drawn) [Example 87, 1-(2-(Difluoromethoxy)-5-methylbenzyl)-2-methyl-6-(2-(3-methylpyrrolidin-3-yl)pyrimidin-5-yl)-1H-indazol-3(2H)-one], greater than 6.00.
Consider `Cn1c(=O)c2ccc(-c3cnc(C(C)(C)O)nc3)nc2n1Cc1ccccc1OC(F)F` [Example 16, 1-(2-(Difluoromethoxy)benzyl)-6-(2-(2-hydroxypropan-2-yl)pyrimidin-5-yl)-2-methyl-1H-pyrazolo[3,4-b]pyridin-3(2H)-one], for which the pIC50 is 5.00 to 6.00.
The result for `C[C@@H]1CN(c2ncc(-c3ccc4c(=O)n(C)n([C@@H](C)c5ccccc5F)c4c3)cn2)CCN1C(=O)CO` (single isomer, unassigned) [Example 85] reads greater than 6.00; that for `C[C@@H]1CN(c2ncc(-c3cc4c(cc3C#N)c(=O)n(C)n4Cc3ccccc3OC(F)F)cn2)CCN1C(=O)CO` [Example 23.2], 5.00 to 6.00.
The result for `Cn1c(=O)c2ccc(-c3cnc(N4CC5(CC5C(=O)O)C4)nc3)cc2n1Cc1ccccc1OC(F)F` (stereo not drawn) [Example 2.14] reads less than 5.00.
The result for `CC[C@@H]1CN(C(C)=O)CCN1c1ncc(-c2ccc3c(=O)n(C)n(Cc4cc(C)ccc4OC(F)F)c3c2)cn1` [Example 20.5] reads greater than 6.00; that for `Cn1c(=O)c2ccc(-c3cnc(N4CCN5C(=O)NC[C@H]5C4)nc3)cc2n1Cc1cccnc1C(F)(F)F` [Example 29.2], 5.00 to 6.00; that for `Cn1c(=O)c2ccc(-c3cnc(N4CCN5C(=O)OC[C@@H]5C4)nc3)cc2n1Cc1cc(CO)ccc1OC(F)F` [Example 16.3, (S)-7-(5-(1-(2-(difluoromethoxy)-5-(hydroxymethyl)benzyl)-2-methyl-3-oxo-2,3-dihydro-1H-indazol-6-yl)pyrimidin-2-yl)tetrahydro-1H-oxazolo[3,4-a]pyrazin-3(5H)-one], greater than 6.00.
Consider `Cn1c(=O)c2ccc(-c3ccc(N4CCNC(=O)C4)nc3)cc2n1Cc1ccccc1OC(F)F` [Example 5.3], for which the pIC50 is 5.00 to 6.00.
